The values that follow come from patent publication US9295624B2, “Amide derivative and whitening agent” (AJINOMOTO CO. INC., priority 2009, dated 2016).

The first series has as its system B16 melanom. Description: Melanin production suppression test. It is filed as cell-based. Particulars: B16 melanoma cells, 3 days incubation, absorbance at 450 nm of medium, control = 100%; read-out: 50% melanin production-suppressive concentration IC50. The method, then:
B16 melanom (purchased from Dainippon Sumitomo Pharma Co., Ltd.) was cultured in DMEM (Dulbecco's Modified Eagle Medium, high glucose, containing 10% serum). After confluent, the cells were trypsinized and seeded in a 96-well plate. On the following day, after adhesion of the cells to the plate, the medium was replaced with DMEM containing each evaluation sample (control (no sample addition), sample of each Production Example) at a given evaluation concentration (diluted from […] according to sample), and the cells were incubated for 3 days. The 96-well plate was shaken in a plateshaker for 5 minutes, the absorbance at 450 nm was measured by a microplatereader (Benchmark microplatereader, manufactured by BIORAD), and the amount of melanin in the medium in each well was compared. The absorbance at 3 days after addition of a given concentration of each sample was shown in relative percentage based on the measurement value (absorbance) of control (no sample addition) as 100%. As Comparative Example, a similar test was performed using kojic acid (KoA), 4-hexylresorcinol, CS (N-(p-coumaroyl)serotonin or N-[2-(5-hydroxy-1H-indol-3-yl)ethyl]-3-(4-hydroxyphenyl)-2-propenamide) and FS (N-feruloylcoumaroylserotonin or N-[2-(5-hydroxy-1H-indol-3-yl)ethyl]-3-(4-hydroxy-3-methoxyphenyl-2-propenamide). The results are shown in FIGS. 1 to 5. The concentration necessary for suppressing production of melanin in each sample by 50%, based on the amount of melanin in the control as 100%, was calculated as 50% melanin production-suppressive concentration IC50 (μM). The results are shown in Table 2.
Kojic acid (KoA) used was purchased from Sigma-Aldrich Japan K.K., 4-n-hexylresorcinol used was purchased from TOKYO CHEMICAL INDUSTRY CO., LTD., and CS and FS used were synthesized by Ajinomoto Co., Inc.
Regarding `COc1cc(C=CC(=O)NCCc2c[nH]c3ccc(O)cc23)ccc1O` [FS, reference compound], the IC50 turned out to be 42.4 µM.

The same series, now with this note: Mus musculus, 72 h; B16 melanoma cells, 3 days incubation, absorbance at 450 nm of medium, control = 100%; read-out: 50% melanin production-suppressive concentration IC50.
With `CCCCCCc1ccc(O)cc1O` [4-hexylresorcinol, reference compound], the IC50 was 23.5 µM.

Turning to `O=C(C=Cc1ccc(O)cc1)NCCc1c[nH]c2ccc(O)cc12` [CS, N-[2-(5-hydroxy-1H-indol-3-yl)ethyl]-3-(4-hydroxyphenyl)-2-propenamide, reference compound], the IC50 amounted to 28.5 µM.

In the case of `O=C(/C=C/c1ccc(O)cc1O)NCCc1c[nH]c2ccccc12` [Example 30], the IC50 came out at 17.1 µM.

Consider `O=C(NCCc1c[nH]c2ccc(O)cc12)c1ccc(O)c(O)c1` [Reference Example 2, reference compound], for which the IC50 came to 1.9 µM.

In the case of `O=C(/C=C/c1ccc(O)cc1)NCCc1c[nH]c2ccccc12` [Example 13], the IC50 came to 21.5 µM.

Turning to `O=c1cc(CO)occ1O` [kojic acid, reference compound], the IC50 stood at 315 µM.

For the compound `COc1ccc(CCNC(=O)/C=C/c2ccc(O)cc2)cc1` [Example 24], the IC50 is 33.3 µM.

On to `Cc1cc(/C=C/C(=O)NCCc2c[nH]c3ccc(O)cc23)ccc1O` [Example 17, N-[2-(5-hydroxy-1H-indol-3-yl)ethyl]-3-(3-methyl-4-hydroxyphenyl)-2-propenamide], for which the IC50 was 14.6 µM.

For the compound `O=C(NCCc1c[nH]c2ccc(O)cc12)c1cc(O)cc(O)c1` [Example 36], the IC50 is 22.4 µM.

On to `O=C(/C=C/c1ccc(O)cc1O)NCCc1c[nH]c2ccc(O)cc12` [Example 4, N-[2-(5-hydroxy-1H-indol-3-yl)ethyl]-3-(2,4-dihydroxyphenyl)-2-propenamide], for which the IC50 came to 10.7 µM.

Another series deals with B16 melanom. Description: Cytotoxicity test (neutral red assay). Particulars: neutral red assay after melanin test, absorbance at 540 nm. It is filed as cell-based. The procedure:
After measurement of the absorbance in the melanin production suppression test of Experimental Example 1, the evaluation sample solution was removed from the plate, and each well was rinsed with DMEM (200 μl, high glucose, containing 10% serum). A medium containing NR (neutral red) was added to each well at 200 μl/well, and the plate was left standing for 2 hours at 37° C., 5% CO2 under a saturated vapor. The medium was removed, and a washing fixative solution (mixture of equal amounts of 2 wt % calcium chloride solution and 2 wt % formalin solution) was added at 200 μl/well. After 1 minute, the washing fixative solution was removed. An NR extract (acetic acid-ethanol, 200 μl/well) was added, and the mixture was shaken in a plateshaker for 15 minutes. NR uptake by viable cells was examined by measuring the absorbance of the NR extract at 540 nm by a microplatereader (Benchmark microplatereader, manufactured by BIORAD). The cytotoxicity of each sample was calculated as a relative percentage of the absorbance of NR extract of the cells added with a given concentration of each sample to the measurement value (absorbance) of a control NR extract (no sample) as 100%.
As to `O=C(NCCc1c[nH]c2ccc(O)cc12)c1cccc(O)c1O` [Example 32], the “cytotoxicity (NR uptake by viable cells)” value is “showed cytotoxicity”.

`O=C(NCCc1c[nH]c2ccc(O)cc12)c1ccc(O)cc1O` [Example 33]: the “cytotoxicity (NR uptake by viable cells)” value is recorded as “showed cytotoxicity”.
